Data from patent US12302908B2, “Insect neuropeptides 4” (Solasta Bio Limited, priority 2023, dated 2025).

Tests used:
[1] = system: Plutella xylostella; test: Leaf dip assay 1 (IRAC susceptibility test method 018, performed by FERA), mortality; type: in vivo; settings: unformulated peptide at 2×10^−4 M; 2nd/3rd instar larvae on dipped Chinese cabbage leaf discs; mortality assessed after 120 hours; FIG. 4
Protocol: The assay was carried out based on IRAC susceptibility test method 018 by a contract research organization, FERA Science Ltd. Test insects Larvae (2nd/3rd instar) were sourced from a laboratory culture of P. xylostella. The culture has been maintained in a controlled environment (CE) room with conditions of 25° C. and 16:8 lighting regime on Chinese cabbage plants. Chinese cabbage leaves were used in the bioassays. A CE room set at 25° C. and 60% r.h. with a 16 hour light: 8 hours dark lighting regime, was used. Leaf discs (approximately 35 mm in diameter) were cut from fully expanded Chinese cabbage leaves. Each leaf disc was dipped in a separate peptide solution for 10 seconds with gentle agitation and placed on a damp filter paper (underside surface uppermost). There were ten replicates for each treatment and control, with five leaf discs per replicate. The treated discs were then put onto damp filter paper in the base of a Petri dishes (90 mm in diameter, 15 mm high) (underside surface uppermost). Five larvae were then transferred onto the treated leaf discs. The dishes were placed in the CE room and mortality was assessed after 120 hours. Leaf dip assays were performed with SB—P-81, and compared to a negative control vehicle and a current commercial insecticide Gazelle SG (shown as Acetamiprid). […]

[2] = system: Plutella xylostella; test: Leaf dip assay 2 (IRAC susceptibility test method 019), mortality; type: in vivo; settings: unformulated peptide at 1×10^−4 M; dipped leaf disc on agar; after 96 hours; FIG. 6
Protocol: The assay was carried out based on IRAC susceptibility test method 019 (irac-online.org/methods/aphids-adultnymphs/). Fill a small 4 cm wide 3 cm high dish with a 1% agar treatment solution of the active chemical or control (ensuring 1 cm gap between the agar and the lid) and leave to set. Dip a 2.5 cm leaf disc into 3 ml of treatment solution allowing the treatment to coat the leaf. Leave the disc to dry for 1 hour and place onto the set agar. Place insects (Plutella xylostella) onto each of the leaf discs. Each unit is sealed with a close-fitting, ventilated lid. Place the agar dishes in a small plastic tray lined with moist tissue paper and ensure the water trays in the bottom of the incubator are filled with clean water and place within the incubator. An assessment of mortality is made at 72, 96 and 120 hours. Leaf dip assays were performed with SB—P-81, and compared to a negative control vehicle and a current commercial insecticide Chlorantraniliprole. The activity of SB—P-81 is shown in FIG. 6; SB—P-81 has good activity whilst being eco-friendly and targeted to specific pests unlike broad spectrum chemical insecticides such as Chlorantraniliprole.

[Hy]-GGSMTFSPRL-[NH2] (H-GGSMTFSPRL-NH2) [SB—P-81, pyrokinin peptide according to the invention]
activity against Plutella xylostella (mortality), leaf dip assay 1 [1]: good activity
activity against Plutella xylostella (mortality), leaf dip assay 2 [2]: good activity
